Reference: patent US11311512B2, “Lymph directing prodrugs” (priority 2014, dated 2022)

Assays:
[1] = tested on: porcine pancreatic lipase; assay: In vitro hydrolysis by porcine pancreatic lipase; type: in vitro ADME; settings: 37° C., simulated intestinal micellar solution pH 6.5, up to 180 min
Experimental: To provide for higher throughput of experiments, unless otherwise stated, in vitro hydrolysis of TST related compounds was performed via incubation with porcine pancreatic lipase. This provides a more reproducible source of pancreatic enzymes, facilitates enhanced experimental throughput and is also a greater challenge than collected rat enzymes (since enzyme activity in rat intestinal fluid is low). Briefly, pancreatic lipase solution was prepared prior to the hydrolysis experiment by dispersion of 1 g porcine pancreatin in 5 ml of lipolysis buffer and 16.9 μl of 5M NaOH. The suspension was mixed well and centrifuged at 3500 rpm for 15 minutes at 5° C. to provide a supernatant. An amount of 1000 ml of lipolysis buffer was prepared with 0.474 g of tris-maleate (2 mM), 0.206 g of CaCl2.H2O (1.4 mM) and 8.775 g of NaCl (150 mM) adjusted with NaOH to pH 6.5. To assess the potential for prodrug hydrolysis in the intestine, 20 μl of prodrug solution (1 mg/ml dissolved in acetonitrile), 900 μl of simulated intestinal micellar solution [prepared with 0.783 g of NaTDC (3 mM) and 0.291 g of phosphatidyl choline (0.75 mM) in 500 ml lipolysis buffer] and 100 μl of enzyme solution were incubated at 37° C. 20 μl samples of the incubation solution were taken at 0, 5, 10, 15, 30, 60, 90, 120 and 180 minutes post incubation and added to 180 μl of ACN to stop lipolysis. The mixture was vortexed and centrifuged at 5000 rpm for 5 minutes to precipitate proteins prior to analysis. The supernatant was analysed by HPLC-MS for residual compound concentrations, and the potential products of compound hydrolysis were analysed.
On incubation with digestive enzymes the monoglycerides forms of the prodrugs are formed very rapidly. The stability in simulated intestinal conditions is therefore better assessed by the stability of the monoglycerides form that is generated by the initial digestion process. The monoglycerides form must remain intact to be absorbed and re-esterified in the enterocyte prior to entry into the lymphatics. […] This is consistent with the increase in lymphatic transport of Compound 18 when compared to Compound 10, and the high extent of lymphatic transport of Compound 16 in FIG. 4.

[2] = for Transport of total TST derivatives in lymph (% of dose): anaesthetised, mesenteric lymph-duct cannulated female SD rats, intraduodenal infusion 0-2 h, cumulative over 8 h; for Fold increase (compared with control group dosed with TU): lymphatic transport of total TST derivatives, female SD rats, intraduodenal infusion
Experimental: Lipid formulations containing the compound of interest were then administered to the animals, the lymph collected and drug concentrations in the lymph subsequently quantified.
Lipid-based formulations of the compounds of the invention or control compounds were prepared as previously described (Trevaskis, N. L. et al., Pharmaceutical Research, 2005, 22(11), 1863-1870). Briefly, approximately 2 mg of the compound (1 mg in the case of Compound 35 and Compound 1), 40 mg oleic acid and 25 mg Tween 80 were mixed in a glass vial until equilibrated (gentle heat (below 50° C.) may be applied for a short period).
[…] This was to eliminate the potential for the relatively high and variable levels of endogenous testosterone in male rats interfering with the quantification of exogenously dosed testosterone. Rats (240-320 g) were maintained on a standard diet and fasted overnight with free access to water prior to experiments. Anaesthetised rats were placed on a heated pad at 37° C. and cannulas were inserted into the duodenum (for formulation administration and rehydration), mesenteric lymph duct (for lymph collection) and carotid artery (for blood collection) as previously described (Edwards et al. Advanced Drug Delivery Reviews 2001, 50(1), 45-60). Post-surgery, rats were re-hydrated for 0.5 h via intraduodenal infusion of normal saline at 2.8 mL/h. The lipid formulations were infused into the duodenum at 2.8 mL/h for 2 h, after which the infusion was changed to 2.8 mL/h normal saline for the remainder of the experiment. Lymph was continuously collected for 6 to 8 h into pre-weighed Eppendorf tubes containing 10 μL of 1,000 IU/mL heparin. The collection tubes were changed hourly and lymph flow was measured gravimetrically. Aliquots of hourly lymph samples were stored at −80° C. prior to assay.
Drug concentration in lymph is expressed as total drug and includes free drug and drug associated with different glycerides. This is assayed by hydrolysis of lymph (to liberate drug from any re-esterified glycerides) prior to assessment of free drug.
FIG. 1 illustrates the cumulative lymphatic transport of total testosterone related derivatives (% of administered dose) versus time in anaesthetised mesenteric lymph duct cannulated female SD rats following intraduodenal infusion of formulations from 0 to 2 h. Each Formulation contained 2 mg of the exemplified compound or the control, testosterone undecanoate (TU), dispersed in 40 mg oleic acid, 25 mg Tween 80 and 5.6 ml PBS.

[3] = Pharmacokinetic study in rats, testosterone plasma concentrations after oral gavage; settings: for systemic exposure of parent testosterone (dose-normalised plasma AUC0-24h), fold greater than after Compound 41 or Compound 10: oral administration; for systemic exposure of parent testosterone (dose-normalised plasma AUC0-24h), fold greater than after Compound 41 or Compound 10 / AUC0-24 h fold increase compared with TU group: SD female rats; for AUC0-24 h fold increase compared with TU group / Tmax / AUC0-24 h / Cmax: testosterone in plasma, oral gavage; for AUC0-24 h fold increase compared with TU group: dose-normalized; for Tmax / AUC0-24 h / Cmax: conscious carotid artery cannulated SD female rats; for AUC0-24 h / Cmax: normalized to 2 mg/kg equivalent testosterone dose
Experimental: In order to assess the oral bioavailability of the compounds of the invention, pharmacokinetic studies were conducted in rats and dogs. […] The rats were then allowed to regain consciousness and fasted overnight prior to the commencement of experiments with free access to water. […] The oral formulation of Compound 2 contained 3 mg of the compound, 20 mg oleic acid and 12.5 mg Tween 80 dispersed in 1 mL PBS. Blood samples were collected from the carotid artery cannula from 5 min prior to administration up to 24 h post-dosing and centrifuged at 5000 rpm for 5 min to separate plasma. […] Plasma samples were stored at −80° C. prior to assay by HPLC-MS-MS. In this case samples were assayed for free drug (i.e. non-glyceride associated drug) and were not hydrolysed prior to assay (as was the case with the lymph samples).
FIG. 12 illustrates dose-normalized testosterone plasma concentrations following oral gavage of formulations to conscious, carotid artery cannulated female SD rats. Formulations contained 1 mg of TU, or 2 mg of compounds of the invention containing testosterone dispersed in 40 mg oleic acid, 25 mg Tween 80 and 2 ml PBS. Doses are normalized to a 2 mg/kg equivalent dose of testosterone. Data are shown as mean±SEM for all groups (n=4 or 3 for each group). The embedded figure is the plot of the dose-normalized plasma AUC0-24h (nmol×h/L) of testosterone in the form of a bar graph.

[4] = Pharmacokinetic study in greyhound dogs, testosterone plasma concentrations after oral administration; type: in vivo; settings: for Cmax / Tmax / AUC0-24 h: oral capsules; for Cmax / AUC0-24 h: normalized to 2 mg/kg equivalent testosterone dose
Experimental: For the dog studies, female greyhound dogs were held in a large animal research facility for at least 5 days prior to the commencement of studies. The dogs were allowed to acclimatise for at least 4 days prior to commencing the study. The dogs were fasted for 12 h up to 30 min prior to drug administration. For the fed state studies (n=4 for TU or Compound 13), dogs received 680 g of standard commercial dog food containing 5% fat min prior to drug administration. In the fasted study (n=1 for Compound 13), the dog remained fasted until after 4 h post-dose. Water was available ad libitum throughout the study for all dogs. On the study day, a 20 gauge intravenous catheter was inserted into a cephalic vein to allow blood sampling. The dogs were free to move around (not restrained) after cannulation. For the fed state studies, Andriol Testocaps (the commercial TU product) or Compound 13 was given to the dogs. Andriol Testocaps were supplied by Merck Sharp & Dohme (Australia) Pty Limited and were formulated as soft gelatin capsule containing a 12.0% (w/w) solution of TU in lauroglycol FCC/castor oil [40:60% (w/w)] with the individual capsule composition being 40 mg of TU, lauroglycol FCC, castor oil, gelatin, glycerol, and sunset yellow (E110). Compound 13 was prepared in a long-chain lipid based self-emulsifying drug delivery system (SEDDS) that consisted of 30.5% w/w soybean oil, 30.5% w/w Maisine 35-1, 31.6% w/w Cremophor EL and 7.4% w/w ethanol. Formulations were filled into hard gelatin capsules. Two capsules of Andriol Testocaps containing 80 mg TU or two capsules of Compound 13 containing a total dose of 90 mg Compound 13 dissolved in 2 g of the SEDDS formulation were administrated to the fed greyhound dog by placing the capsules as far posterior to the pharynx as possible, closing the mouth and rubbing the throat to stimulate swallowing. Subsequently 50 mL of water was administered orally via a syringe. Two capsules of Compound 13 formulation were also administrated to the fasted dogs for fasted state studies. After oral administration, blood samples (approx. 3 mL each) were taken via the cephalic vein cannula from 5 min prior to administration up to 10 hours post-dosing. The patency of the catheters was maintained by flushing with a small volume of heparinised saline (1-2 IU/mL) after each blood sample was withdrawn. Blood samples at 24 h were taken by venepuncture. Plasma was separated by centrifugation and aliquots of each plasma sample were transferred into eppendorf tubes and store at −80° C. prior to analysis by LC-MS-MS.

[5] = greyhound dog, fasted state (n = 1)

| SMILES | stability of the monoglyceride form during in vitro incubation with porcine pancreatic lipase [1] | Transport of total TST derivatives in lymph (% of dose) [2] | Fold increase (compared with control group dosed with TU) [2] [fold] | systemic exposure of parent testosterone (dose-normalised plasma AUC0-24h), fold greater than after Compound 41 or Compound 10 [3] [fold] | AUC0-24 h fold increase compared with TU group [3] [fold] | Tmax [3] [h] | AUC0-24 h [3] [µM·h] | Cmax [3] [nM] | AUC0-24 h fold increase compared with TU group ([4]; greyhound dog, fasted state (n = 1), dose-normalized) [fold] | Cmax ([4]; conscious greyhound dogs, fed state, TU as Andriol Testocaps, Compound 13 in SEDDS) [nM] | Tmax [4, 5] [h] | AUC0-24 h [4, 5] [µM·h] | Cmax [4, 5] [nM] | Tmax ([4]; greyhound dogs, fed state) [h] | AUC0-24 h ([4]; greyhound dogs, fed state) [µM·h] |
| --- | --- | --- | --- | --- | --- | --- | --- | --- | --- | --- | --- | --- | --- | --- | --- |
| CCCCCCCCCCCCCCCC(=O)OCC(COC(=O)CCCCCCCCCCCCCCC)OC(=O)CCCCC(=O)O[C@H]1CC[C@H]2[C@@H]3CCC4=CC(=O)CC[C@]4(C)[C@H]3CC[C@]12C [Compound 11] | not highly stable | 17.0 ± 1.6 % of dose | 9.0 | 10 | 12.4 | 1.3 ± 0.1 | 0.0842 ± 0.0093 | 69.9 ± 8.2 | – | – | – | – | – | – | – |
| CCCCCCCCCCCCCCCC(=O)OCC(COC(=O)CCCCCCCCCCCCCCC)OC(=O)CCCCCCCCC(=O)O[C@H]1CC[C@H]2[C@@H]3CCC4=CC(=O)CC[C@]4(C)[C@H]3CC[C@]12C [Compound 13] | not highly stable | – | – | 10 | – | 0.9 ± 0.1 | 0.1871 ± 0.0358 | 197 ± 53.4 | 7.3 | 455 ± 9.4 | 2.5 | 1.0268 | 386 | 1.8 ± 0.3 | 1.1166 ± 0.0324 |
| CCCCCCCCCCCCCCCC(=O)OCC(COC(=O)CCCCCCCCCCCCCCC)OC(=O)C(C)CCCCCCCC(=O)O[C@H]1CC[C@H]2[C@@H]3CCC4=CC(=O)CC[C@]4(C)[C@H]3CC[C@]12C (stereo partly drawn) [Compound 16] | significantly stabilised the monoglyceride intermediates | 23.2 ± 2.3 % of dose | 12.3 | – | 15.8 | 1.3 ± 0.1 | 0.1076 ± 0.014 | 77 ± 14.2 | – | – | – | – | – | – | – |
| CCCCCCCCCCCCCCCC(=O)OCC(COC(=O)CCCCCCCCCCCCCCC)OC(=O)CCCCC(=O)OCO[C@H]1CC[C@H]2[C@@H]3CCC4=CC(=O)CC[C@]4(C)[C@H]3CC[C@]12C [Compound 21, 1,3-Bis(palmitoyloxy)propan-2-yl (((8R,9S,10R,13S,14S,17S)-10,13-dimethyl-3-oxo-2,3,6,7-8,9,10,11,12,13,14-15,16,17-tetradecahydro-1H-cyclopenta[a]phenanthren-17-yl)oxy)methyl adipate] | lower than that of Compound 11 | – | – | – | 44.0 | 0.7 ± 0.2 | 0.2994 ± 0.1001 | 232 ± 63.2 | – | – | – | – | – | – | – |
| CCCCCCCCCCCCCCCC(=O)OCC(COC(=O)CCCCCCCCCCCCCCC)OC(=O)CC(C)CC(=O)Oc1cc(C)cc(C)c1C(C)(C)CC(=O)O[C@H]1CC[C@H]2[C@@H]3CCC4=CC(=O)CC[C@]4(C)[C@H]3CC[C@]12C (stereo partly drawn) [Compound 25] | remarkably stable | – | – | – | 58.5 | 0.9 ± 0.1 | 0.3992 ± 0.0432 | 419 ± 63.3 | – | – | – | – | – | – | – |
| CCCCCCCCCCCCCCCC(=O)OCC(COC(=O)CCCCCCCCCCCCCCC)OC(=O)CC(C)CCCCCCC(=O)Oc1cc(C)cc(C)c1C(C)(C)CC(=O)O[C@H]1CC[C@H]2[C@@H]3CCC4=CC(=O)CC[C@]4(C)[C@H]3CC[C@]12C (stereo partly drawn) [Compound 27] | remarkably stable | – | – | – | 106.4 | 1.5 ± 0.5 | 0.7238 ± 0.0905 | 428 ± 97.8 | – | – | – | – | – | – | – |
